Measured values: US6255092A, “Stereospecific alcohol dehydrogenase isolated from Candida parapsilosis, amino acid and DNA sequences therefor, and method of preparation thereof” (Daicel Chemical Industries Ltd., priority 1993, dated 2001)
Read-outs that look alike come from different tables or passages of the source.

What was measured:
[1] = molecular target: T1, secondary alcohol dehydrogenase (Lodderomyces parapsilosis, UniProt O42703)
Description: (§1) One unit of enzyme was defined as the amount of enzyme necessary to catalyze the formation of 1 μmol of NADH per min under the assay conditions.

[2] = molecular target: T1, secondary alcohol dehydrogenase; test: biochemical; assay type: biochemical, Candida parapsilosis; parameters: full length 336 aa, about 40 kDa; gene also expressed in E. coli JM109 (pKK-CPA1); settings: for remaining activity at 1000 µM: read-out: Relative activity (remaining activity)
Description: After said enzyme was incubated at 30° C. for 30 min in the presence of various reagents, the remaining activity was assayed and expressed as the percentage relative to that (100%) of the untreated enzyme (Table 5).

[3] = molecular target: T1, secondary alcohol dehydrogenase; test: Substrate specificity: reducing activity with ketones/aldehydes (NADH); assay type: biochemical, Candida parapsilosis; parameters: full length 336 aa, about 40 kDa; gene also expressed in E. coli JM109 (pKK-CPA1); settings: reduction, coenzyme NADH, relative to 2-butanone reducing activity (100%)
[4] = relative to that for ethanol; cited from earlier work
[5] = pH optimum of (S)-2-butanol oxidizing activity; assay type: biochemical, Candida parapsilosis; settings: KPB, Tris-HCl and Briton-Robinson buffer
Description: as §1

[6] = pH optimum of 2-butanone reducing activity; assay type: biochemical, Candida parapsilosis; settings: NADH, KPB, Tris-HCl and Briton-Robinson buffer
[7] = Specific activity of the purified enzyme, standard assay; assay type: biochemical, Candida parapsilosis; settings: purified enzyme after Mono-Q, (S)-2-butanol, pH 9.0, 30° C.
Description: The wet cells thus obtained were disrupted in a high pressure cell disintegrator, and centrifuged to remove cell debris. To the cell-free extract protamine sulfate was added to remove nucleic acids and microsomes. After centrifugation, the supernatant was brought to 70% saturation with ammonium sulfate, and the precipitate was collected, subjected to anion exchange chromatography on Q-Sepharose FF, eluted with a density gradient of NaCl, and the peak fraction containing said secondary alcohol dehydrogenase activity was collected. The active fraction was then subjected to hydrophobic chromatography on a column of phenyl-Sepharose equilibrated with a buffer containing 1.62 M ammonium sulfate, and the active fraction was eluted by reducing the ammonium sulfate concentration to 0 M (the enzyme activity was assayed as described hereinbefore). After the active fraction was added to a Red Sepharose affinity column, the unretained fraction was subjected to a Superdex 200 gel filtration. The recovered active fraction was subjected to anion exchange chromatography on a Mono Q column and eluted with a density gradient of NaCl. Only active fractions which gave a single band in the purity test on SDS-PAGE were collected.

[8] = Optimum reaction temperature, standard assay; assay type: biochemical, Candida parapsilosis
Description: The secondary alcohol dehydrogenase activity was assayed under the standard assay conditions at different temperature as shown in Table 2.

[9] = Thermostability of the purified enzyme; assay type: physicochemical, Candida parapsilosis; settings: 40° C. for 10 min, pH 8.0, relative to the original activity
Description: After the purified enzyme was incubated at pH 8.0 and 30° C.-70° C. for 10 min, the remaining activity was assayed. Even after the incubation at 40° C. for 10 min, more than 90% of the original enzyme activity was retained (FIG. 5).

[10] = oxidation, substrate 5 mM, coenzyme NAD+, relative to (S)-2-butanol oxidizing activity (100%)
[11] = inhibitor 1 mM, 30° C. for 30 min, relative to untreated enzyme (100%)

`CCCCCCC(C)O` (racemic) [(RS)-2-Octanol] showed a Relative activity [1, 10] of 39.2%.

For `O[C@H](CS)[C@H](O)CS` (racemic) [Dithiothreitol], the “Inhibition of the enzyme activity (in words)” value (from here on “Inhibition”) [2] was “markedly inhibited” and the remaining activity at 1000 µM [2, 11] was 0%.

With `CCC(C)=O` [2-Butanone] the Relative activity ([3]; substrate 100 mM) was 100.0%.

With `CC(=O)C(C)(C)O` [3-Hydroxy-3-methyl-2-butanone] the Relative activity ([3]; substrate 100 mM) was 18.5%.

In the case of `CC(=O)CCO` [4-Hydroxy-2-butanone], the Relative activity ([3]; substrate 100 mM) is reported as 41.2%.

`CC(C)CC(C)O` (stereo not shown) [4-Methyl-2-pentanol] showed a Relative activity ([1]; oxidation, substrate 20 mM, coenzyme NAD+, relative to (S)-2-butanol oxidizing activity (100%)) of 40.8%.

Molecule `C[C@@H](O)c1ccccc1` [(R)-1-Phenylethanol] has a Relative activity [1] of 1.1.

In the case of `CCCCCC[C@@H](C)O` [(R)-2-Octanol], the Relative activity [1, 10] is reported as 0.0%.

`C[C@H](O)c1ccccc1` [(S)-1-Phenylethanol] showed a Relative activity [1] of 89.3.

With `CCCCCC[C@H](C)O` [(S)-2-Octanol] the Relative activity [1, 10] was 67.7%.

Molecule `CC(C)=O` [Acetone] has a Relative activity ([3]; substrate 100 mM) of 123.4%.

For `CC(=O)c1ccccc1` [Acetophenone], the Relative activity ([3]; substrate 20 mM) was 121.8%.

With `O=S(=O)([O-])[O-].[Cu+2]` [CuSO4] the “Relative activity (remaining activity)” value [2, 11] was 25.5%.

`OC1CCCCC1` [Cyclohexanol] gave a Relative activity [1] of 52.8.

With `O=C(O)CN(CCN(CC(=O)O)CC(=O)O)CC(=O)O` [Ethylenediaminetetraacetic acid, Ethylenediamine-tetraacetic acid] the “Inhibition” value [2] was “not” and the remaining activity at 1000 µM [2] was 102%.

With `[Cl][Hg][Cl]` [HgCl2, mercuric chloride] the “Inhibition” value [2] was “markedly inhibited” and the “Relative activity (remaining activity)” value [2, 11] was 0.0%.

`CO` [Methanol] gave a Relative activity [1] of 0.2.

For `CCN1C(=O)C=CC1=O` [N-Ethylmaleimide], the “Inhibition” value [2] was “inhibited” and the remaining activity at 1000 µM [2, 11] was 21.2%.

With `NO` [NH2 OH] the “Relative activity (remaining activity)” value ([2]; inhibitor 0.01 mM, 30° C. for 30 min, relative to untreated enzyme (100%)) was 92.7%.

With `[N-]=[N+]=[N-].[Na+]` [NaN3] the “Relative activity (remaining activity)” value ([2]; inhibitor 0.02(%), 30° C. for 30 min, relative to untreated enzyme (100%)) was 89.9%.

For `O=S(=O)(F)Cc1ccccc1` [Phenylmethanesulfonyl fluoride, Phenylmethane-sulfonyl fluoride], the “Relative activity (remaining activity)” value [2, 11] was 69.0%.

`CCC=O` [Propionaldehyde] showed a Relative activity ([3]; substrate 100 mM) of 76.2%.

In the case of `[Cl-].[Cl-].[Zn+2]` [ZnCl2, zinc chloride], the “Inhibition” value [2] is reported as “markedly inhibited” and the “Relative activity (remaining activity)” value [2, 11] is reported as 16.4%.

For `OCCS` [b-Mercaptoethanol, 2-mercaptoethanol], the “Inhibition” value [2] was “markedly inhibited” and the remaining activity at 1000 µM [2, 11] was 3.2%.

For `NC(=O)CI` [iodoacetamide], the “Inhibition” value [2] was “markedly inhibited”.

With `c1cnc2c(c1)ccc1cccnc12` [o-Phenanthroline] the “Inhibition” value [2] was “inhibited” and the remaining activity at 1000 µM [2, 11] was 19%.

In the case of `O=C(O)c1cc[c]([Hg][Cl])cc1` [p-Chloromercuribenzoic acid, p-Chloromercuri-benzoic acid], the “Inhibition” value [2] is reported as “markedly inhibited”, the “Relative activity (remaining activity)” value ([2]; inhibitor 0.05 mM, 30° C. for 30 min, relative to untreated enzyme (100%)) is reported as 0.0% and the “Inhibition” value ([2]; listed as p-mercuribenzoic acid) is reported as “inhibited”.

B1: SADH-1: primary alcohol dehydrogenase derived from baker's yeast (Saccharomyces cerevisiae) (protein, UniProt P00330 2-348, looked up)
Alcohol dehydrogenase 1: SIPETQKGVIFYESHGKLEYKDIPVPKPKANELLINVKYSGVCHTDLHAWHGDWPLPVKLPLVGGHEGAGVVVGMGENVKGWKIGDYAGIKWLNGSCMACEYCELGNESNCPHADLSGYTHDGSFQQYATADAVQAAHIPQGTDLAQVAPILCAGITVYKALKSANLMAGHWVAISGAAGGLGSLAVQYAKAMGYRVLGIDGGEGKEELFRSIGGEVFIDFTKEKDIVGAVLKATDGGAHGVINVSVSEAAIEASTRYVRANGTTVLVGMPAGAKCCSDVFNQVVKSISIVGSYVGNRADTREALDFFARGLVKSPIKVVGLSTLPEIYEKMEKGQIVGRYVVDTSK
In the case of B1, the “Relative activity for 2-butanol” value [4] is given as “about 1%”.

B2: secondary alcohol dehydrogenase: NAD+-dependent stereospecific secondary alcohol dehydrogenase purified from Candida parapsilosis IFO 1396, SEQ. ID NO: 2 (protein)
chain: MSIPSSQYGFVFNKQSGLNLRNDLPVHKPKAGQLLLKVDAVGLCHSDLHVIYEGLDCGDNYVMGHEIAGTVAAVGDDVINYKVGDRVACVGPNGCGGCKYCRGAIDNVCKNAFGDWFGLGYDGGYQQYLLVTRPRNLSRIPDNVSADVAAASTDAVLTPYHAIKMAQVSPTSNILLIGAGGLGGNAIQVAKAFGAKVTVLDKKKEARDQAKKLGADAVYETLPESISPGSFSACFDFVSVQATFDVCQKYVEPKGVIMPVGLGAPNLSFNLGDLALREIRILGSFWGTTNDLDDVLKLVSEGKVKPVVRSAKLKELPEYIEKLRNNAYEGRVVFNP
In the case of B2, the “pH optimum for the oxidation of (S)-2-butanol” value [5] is reported as 8.5-9.5, the “pH optimum for the reduction of 2-butanone” value [6] is reported as 5.5-6.5 and the Specific activity [7] is reported as 1370 units/mg. For the same molecule, the “Temperature range of high activity” value [8] was 25-55 °C, the Relative activity ([8]; 30 °C) was 55% and the Relative activity ([8]; 37 °C) was 65%. The Relative activity ([8]; 45 °C) was 92%, the Relative activity ([8]; 50 °C) was 100% and the Relative activity ([8]; 55 °C) was 88%. For the same molecule, the Relative activity ([8]; 60 °C) was 0%, the Optimum reaction temperature ([8]; standard assay conditions) was 50 °C and the “Remaining activity after heat treatment” value [9] was “more than 90%”.
